Results published in patent publication US20150231109A1, “COMBINATIONS (CATECHINS AND METHOTREXATE) FOR USE IN THE TREATMENT OF MELANOMAS” (UNIVERSIDAD DE MURCIA, priority 2012, published 2015).
Read-outs that look alike come from different tables or passages of the source.

Columns and labels:
MITF = experiment: ChIP assay, occupancy of MITF on TYR and Pmel17 genes in SK-MEL-28 cells; assay type: cell-based; details: Homo sapiens, SK-MEL-28, MTX 4 h
Protocol: F, Chromatin immunoprecipitation on TYR and Pmel17 genes of control and MTX-treated (4 h, 1 μM) SK-MEL-28 cells with qRT-PCR after immunoprecipitation with IgG, or MITF and HDAC3 antibodies.
The ChIP assay was performed with the Magna ChIP™ G kit from Millipore according to the manufacturer's instructions. […] The cross-linked chromatin was then used for immunoprecipitation with MITF antibody, HDAC3 antibody (positive control) or mouse IgG (negative control). DNA from lysates prior to immunoprecipitation was used as positive input controls.

[1] = tested on: melanoma cells (SK-MEL-28); experiment: dNTP pool extraction and analysis; assay type: cell-based, human
Protocol: FIGS. 2A-N. MTX and TMECG combination therapy induces apoptosis via dTTP depletion and DNA-damage. A, Intracellular accumulation of TMECG-QM in SK-MEL-28 treated with TMECG or MTX/TMECG for 24 h. B, Proliferation assays performed of control or MTX/TMECG-treated ([…]) SK-MEL-28 cells. C, Quantification of effects of MTX/TMECG treatment on SK-MEL-28 cells (*P<0.05 with respect to TMECG-treated cells). For time course assay MTX (1 μM) and TMECG (10 μM) were used. D, dNTP quantification in melanoma cells subjected to indicated treatments (*P<0.05). E, SK-MEL-28 cells treated with MTX/TMECG for the indicated times were examined by immunofluorescence for γH2AX foci (red) and DAPI (blue) (left panels), or by WB (right panels). β-actin served as a protein loading control. F, apoptosis determination at different MTX/TMECG combinations in SK-MEL-28 cells after 4 days of treatment. Data were obtained in triplicate in two independent experiments. Differences in apoptosis in MTX/TMECG treated cells were significant with respect to individual treatments for each drug concentration (p<0.05). […] K, quantification of γH2AX foci in SK-MEL-28 cells treated with MTX (1 μM) and/or TMECG (10 μM), or X-rays. […] N, Cell cycle profile determined by flow cytometry of SK-MEL-28 cells treated with a sublethal dose of MTX/TMECG. […]

E2F1 = experiment: MALDI-TOF mass spectroscopy of immunoprecipitated E2F1 tryptic digests from SK-MEL-28 cells; assay type: cell-based, human; details: SK-MEL-28, 24 h, normalized to internal matrix control
Protocol: SK-MEL-28 whole cell lysates were immunoprecipitated as described above but with two variations. First, the lysis and dilution buffers contained 2.5 μM trichostatin (a potent deacetylase inhibitor) and 20 μM trans-2-phenylcyclo-propylamine (an irreversible inhibitor of lysine-specific demethylase 1, LSD1). Second, the E2F1 antibody was covalently coupled to Dynabeads® (Invitrogen). After immunoprecipitation and elution, bound proteins were digested with trypsin according to standard procedures (Shevchenko). Data were recorded and processed with Agilent MassHunter Workstation Software for obtaining the Peptide Mass Fingerprint (PMF). The PMF result mass spectra were searched against the E2F1 protein sequence with carbamidomethylation of cysteine as fixed modification and methylation and acetylation of lysine residues, oxidation of methionine residues and phosphorylation of serine residues as variable modifications. Peptide mass tolerance was set to 50 ppm and a maximum of three missed cleavages was considered.

## CN(Cc1cnc2nc(N)nc(N)c2n1)c1ccc(C(=O)N[C@@H](CCC(=O)O)C(=O)O)cc1 [MTX, methotrexate]
MITF; untreated cells 1.5%, read-out: occupancy of MITF on the TYR promoter with respect to an input control
  receptor occupancy at 1 µM: 25.2%
MITF; untreated cells 5.4%, read-out: occupancy of MITF on the promoter/enhancer of the Pmel17 gene with respect to an input control
  receptor occupancy at 1 µM: 45.4%
[1]
  dTTP levels: increased dTTP levels
E2F1; CN 11
  Intensity of phosphorylated (S364) E2F1 peptide: 24
E2F1; CN 46
  Intensity of phosphorylated (S31) E2F1 peptide: 12
E2F1; CN 49
  Intensity of hyperacetylated (K117,120,125) E2F1 peptide: 329
E2F1; CN 64
  Intensity of non-methylated (K185) E2F1 peptide (K)NHIQWLGSHTTVGVGGR(L): 379
E2F1; CN 295
  Intensity of non-phosphorylated (S31) E2F1 peptide: 312
E2F1; CN 318
  Intensity of non-phosphorylated (S364) E2F1 peptide: 310
E2F1; CN 320
  Intensity of non-acetylated E2F1 peptide (K)SPGEK(S): 20
E2F1; CN 325
  Intensity of non-acetylated E2F1 peptide (R)HPGK(G): 16
E2F1; CN 355
  Intensity of methylated (K185) E2F1 peptide: 18
